Assay results from patent publication US20070249691A1, “Mercaptoimidazoles as Ccr2 Receptor Antagonists” (priority 2004, published 2007).

What was measured:
CCR2 [1] = target: T1, CCR2 (Homo sapiens, UniProt P41597); test: Inhibition of MCP-1 induced Ca-flux in human THP-1 cells; format: cell-based; set-up: host or cells: THP-1 (human monocytic cell line); details: -log IC50 (molar), inhibition of specific MCP-1 (10^-7 M hMCP-1) induced Ca2+ flux, FLIPR
T1 sequence (P41597 1-360 isoform P41597-2): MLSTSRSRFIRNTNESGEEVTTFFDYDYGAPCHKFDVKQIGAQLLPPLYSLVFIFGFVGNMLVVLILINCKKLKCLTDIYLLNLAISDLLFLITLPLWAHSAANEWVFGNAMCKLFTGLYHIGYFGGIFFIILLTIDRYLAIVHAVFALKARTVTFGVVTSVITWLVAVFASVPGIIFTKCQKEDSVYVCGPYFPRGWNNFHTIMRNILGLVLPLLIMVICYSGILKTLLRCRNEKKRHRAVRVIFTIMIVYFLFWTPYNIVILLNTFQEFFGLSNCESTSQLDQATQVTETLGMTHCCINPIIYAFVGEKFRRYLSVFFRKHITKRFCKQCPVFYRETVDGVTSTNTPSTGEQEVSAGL
Protocol: Inhibition of MCP-1 Induced Ca-Flux in Human THP-1 Cells
MCP-1 binding to the CCR2 receptor induces a rapid and transient intracellular release of Ca^2+ (secondary messenger) in several cell lines (Charo et al, PNAS 1994). Free Ca^2+ levels can be measured using a Ca^2+ sensitive dye. When the CCR2 receptor is blocked with a CCR2 receptor antagonist, the MCP-1 induced release of Ca^2+ is inhibited.
Human THP-1 cells (monocytic cell line, ATCC TIB-202) were cultured in RPMI 1640 medium supplemented with 10% fetal calf serum (FCS), 1% L-Glutamine, penicillin (50 U/ml) and streptomycin (50 μg/ml) (all GIBCO BRL, Gent). After centrifugation, cells were loaded for 30 minutes with the Ca^2+ sensitive fluorescent dye Fluo-3 μM (Molecular Probes, Leiden, Netherlands) (2 million cells/ml in RPMI medium containing 4 μM Fluo-3 μM, 20 mM HEPES, 0.1% Bovine Serum Albumin (BSA) and 5 mM probenecid). Excess dye was removed by 3-fold washing with buffer (5 mM HEPES, 140 mM NaCl, 1 mM MgCl2, 5 mM KCl, 10 mM glucose, 2.5 mM probenecid, 1.25 mM CaCl2, 0.1% BSA; all further incubations were done in this buffer). Cells were plated at a density of 150 000 cells/well in dark-wall 96-well plates (Costar, Cambridge, Mass.) and sedimented by centrifugation (1 minute). The cells were pre-incubated for 20 minutes with test compound. Then, 10^−7 M hMCP-1 (Bachem, Bubendorf, Switserland) was added. Changes in intracellular free Ca^2+ concentration were measured using the Fluorescent Imaging Plate Reader (FLIPR, Molecular Devices, Munchen, Germany). Fluorescence was recorded every second from 10 seconds before the addition of the MCP-1 till 2 minutes after the addition (first minute: 60 records with 1 second intervals, second minute 20 records with 3 second intervals). The maximal fluorescence obtained during this time frame was used for further calculations.
Table 5 reports pIC50 values obtained in the above-described test for compounds of formula (I). pIC50 defines—log IC50 wherein IC50 is the molar concentration of the test compound which inhibits 50% of specific MCP-1 induced Ca^2+ flux.

CCR2B = target: T2, CCR2B (Homo sapiens, UniProt P41597); test: 125I-MCP-1 radioligand binding assay, membranes from CCR2B-transfected CHO cells; details: competition with 0.15 nM 125I-MCP-1, CCR2B-transfected CHO cell membranes, Cheng-Prusoff
T2 construct: expressed in transfected cells; host or cells: CHO cells (membrane preparation)
T2 sequence (P41597 1-360 isoform P41597-2): T1 sequence (P41597 1-360 isoform P41597-2)
Protocol: Radioligand Binding Assay.
^125I-MCP-1 binding assays were performed in 96:well plates with 40 μg of protein per well. Compounds were dissolved and diluted in DMSO to 100× dilutions. A 10× concentration range of compounds was prepared in binding buffer (10% DSMO). Competition binding assays contained the following components in a total volume of 250 μl: 25 μl of the appropriate compound dilution (final concentration of 1% DMSO), 200 μl membranes from CCR2B-transfected CHO cells dissolved in binding buffer and 25 μl ^125I-MCP-1 (Bolton and Hunter labeled, Amersham, specific activity=2000 Ci/mmol, 0.15 nM final). Binding buffer was composed of 25 mM HEPES, 5 mM MgCl2, 1 mM CaCl2, 0.5% protease-free bovine serum albumin, pH 7.4. After 90 minutes incubation at 25° C. membranes were harvested on GF/B filters—presoaked in 0.5% polyethylenimine, followed by washing with buffer containing 25 mM HEPES, 5 mM MgCl2, 1 mM CaCl2, 5 mM NaCl, pH 7.4. Filter bound radioactivity was determined by liquid scintillation counting. EC50 values (μM) and Ki values (μM) were calculated. The ED50 value indicates the concentration of the test compound that competes with MCP-1 for half of the specific binding sites; the Ki value indicates the equilibrium dissociation constant, i.e. the concentration of the test compound that will bind to half of the binding sites at equilibrium in the absence of radioligand or other competitors. EC50 values and Ki values were calculated using non-linear regression in Graphpad Prism. Prism calculates the Ki or affinity of the receptor for the competing drug using the equation of Cheng and Prusoff (Biochem. Pharmacol. 1973, 22: 3099-3108). A low Ki indicates a high affinity of the receptor for the test compound. [formula] wherein Kd describes the affinity of the radioligand for the receptor, i.e. the concentration of the radioligand that will bind to half of the binding sites at equilibrium in the absence of competitors.
Table 6 lists Ki values (μM) obtained in the above-described test for compounds of formula (I).

CCR2 [2] = target: T1, CCR2; test: Chemotactic response of human PBMC to MCP-1; format: cell-based; set-up: Mononuclear cells from human heparinized peripheral blood (PBMC) were isolated; endogenous in cells; host or cells: human peripheral blood mononuclear cells; details: inhibition of migration of human PBMC to 30 ng/ml hMCP-1, 105 minutes
Protocol: The CCR2 antagonistic activity of the compounds of the present invention can also be determined by measuring the effect of the compounds on the chemotactic response of cells in the presence of a chemokine, such as for example MCP-1.
Mononuclear cells from human heparinized peripheral blood (PBMC) were isolated using Ficoll-Paque gradient centrifugation (Amersham Biosciences). Assays of chemotactic responsiveness were performed using disposable 96-well chemotaxis chambers (ChemoTx, Neuro Probe) with 5-μm pore size polycarbonate (PVP-free) filter membranes. Mononuclear cells were fluorescently labeled with 5 μg/ml Calcein-AM (Molecular Probes, Eugene, Oreg.) at 37° C. for 30 minutes. Labeled cells were washed twice and resuspended at 5×10^6 cells/ml in Hanks' Balanced Salt Solution (Gibco BRL) supplemented with 0.2% bovine serum albumin. Subsequently, cells were pre-incubated for 10 minutes at room temperature with serial dilutions of the compounds in DMSO (dimethylsulfoxide) (final DMSO concentration of 0.2%). Bottom wells of the chemotaxis chamber were loaded with 28 μl medium containing 30 ng/ml recombinant hMCP-1 (R&D) or buffer only. Pre-treated cells (100.000 cells) were added in triplicate to the topside of the filter (20 μl) and incubated at 37° C. in humidified air containing 5% CO2. After 105 minutes incubation, the non-migrated cells were removed from the top of the filter by gently wiping the filter with a tissue. The migrated cells were measured using a fluorescent plate reader (λexcitation=485 nm; λemission=538 nm). The chemotactic response can be expressed as chemotactic index (C.I.), being the ratio of the means of migrated cells in the presence of MCP-1 and the means of migrated cells in the absence of chemokine. Percentage inhibition was calculated using the formula: [formula]
with Fsample, the fluorescence of the cells pre-incubated with 10, 1, 0.1, 0.01 or 0.001 μM compound and migrated to 30 ng/ml MCP-1 in the bottom wells; FMCP-1, the fluorescence of the cells pre-incubated with buffer-0.2% DMSO and migrated to 30 ng/ml MCP-1 and Fbuffer, the fluorescence of cells pre-incubated with buffer-0.2% DMSO and spontaneous migrated to buffer in the bottom wells. Table 7 lists the IC50 values (μM) obtained in the above-described test for compounds of formula (I). Assays were run in triplicate and repeated 2-7 times.

Row | SMILES | IC50 (CCR2 [1]) [nM] | melting point [°C] | Ki (CCR2B) [nM] | IC50 (CCR2 [2]) [nM]
1 | CCC(c1ccc(Cl)c(Cl)c1)n1c(C(=O)OC)c(-c2cnccn2)[nH]c1=S (stereo not drawn) [Compound 34] | 25.1 |  |  | 
2 | COCC(c1ccc(F)c(F)c1)n1c(C(=O)OC)c(-c2nnc(C)o2)[nH]c1=S (stereo not drawn) [Compound 50] |  | 102.8 to 102.9 |  | 
3 | CCC(c1ccc(Cl)c(Cl)c1)n1c(C(=O)OC)c(-c2ccno2)[nH]c1=S (stereo not drawn) [Compound 25] | 13.2 |  |  | 
4 | CCC(c1ccc(F)c(F)c1)n1c(C(N)=O)c(-c2nnc(C)o2)[nH]c1=S (stereo not drawn) [Compound 13] |  | 228 to 229 | 300 | 
5 | CC[C@H](c1ccc(F)c(F)c1)n1c(C(=O)OC)c(-c2ccno2)[nH]c1=S [Compound 43] | 7.94 |  | 30 | 
6 | CCC(c1ccc(Cl)c(Cl)c1)n1c(C(=O)OC)c(-c2cccnc2)[nH]c1=S (stereo not drawn) [Compound 51] | 39.8 |  |  | 474
7 | CCC(c1ccc(Cl)c(Cl)c1)n1c(C(=O)OC)c(-c2cc(C)on2)[nH]c1=S (stereo not drawn) [Compound 28] | 15.8 |  | 10 | 367
8 | CCC(c1ccc(Cl)c(Cl)c1)n1c(C(=O)OC)c(-c2ccno2)[nH]c1=S (stereo not drawn) [Compound 26] | 7.94 |  | 50 | 
9 | CCC(c1ccc(Cl)c(Cl)c1)n1c(C(=O)OC)c(-c2ccccn2)[nH]c1=S (stereo not drawn) [Compound 32] | 25.1 |  |  | 
10 | CCC(c1ccc(Cl)c(Cl)c1)n1c(C(=O)OC)c(-c2nnc(C)o2)[nH]c1=S (stereo not drawn) [Compound 27] | 33.1 |  |  | 
11 | CCC(c1ccc(F)c(F)c1)n1c(C(=O)OC)c(-c2ccno2)[nH]c1=S (stereo in doubt) [Compound 53, (S)-3-[1-(3,4-difluoro-phenyl)propyl]-5-isoxazol-5-yl-2-thioxo-2,3-dihydro-1H-imidazole-4-carboxylic acid methyl ester] |  |  | 30 | 108
12 | CCCC(c1ccc(F)c(F)c1)n1c(C(=O)OC)c(-c2ccno2)[nH]c1=S (stereo not drawn) [Compound 48] | 12.6 |  |  | 
13 | CCC(c1ccc(Cl)c(Cl)c1)n1c(C(=O)OC)c(-c2cccs2)[nH]c1=S (stereo not drawn) [Compound 6] | 55 |  |  | 
14 | CCC(c1ccc(F)c(F)c1)n1c(S)nc(-c2cc(C)on2)c1C(=O)OCCOC (stereo not drawn) [Compound 16] | 31.6 |  |  | 
15 | CCC(c1ccc(Cl)c(Cl)c1)n1cc(-c2sc(N)nc2C)nc1S.Cl (stereo not drawn) |  | 301.8 to 303.3 |  | 
16 | CCC(c1ccc(Cl)c(Cl)c1)n1c(C(=O)O)c(-c2cccs2)[nH]c1=S (stereo not drawn) [Compound 23] |  |  |  | 24
17 | CCCC(c1ccc(F)c(F)c1)n1c(C(=O)OC)c(-c2cc(C)on2)[nH]c1=S (stereo not drawn) [Compound 49] | 25.1 |  |  | 
18 | CCC(c1ccc(Cl)c(Cl)c1)n1c(C(N)=O)c(-c2nnc(C)o2)[nH]c1=S (stereo not drawn) [Compound 36] | 39.8 |  | 70 | 244
19 | CCC(c1ccc(Cl)c(Cl)c1)n1c(C(=O)OC)c(-c2snnc2C)[nH]c1=S (stereo not drawn) [Compound 24] | 72.4 |  |  | 
20 | CCC(c1ccc(Cl)c(Cl)c1)n1c(C(=O)OC)c(-c2ccncc2)[nH]c1=S (stereo not drawn) [Compound 33] | 12.6 |  |  | 
21 | CCC(c1ccc(Cl)c(Cl)c1)n1c(C(=O)OC)c(-c2ccccc2)[nH]c1=S (stereo not drawn) [Compound 31] | 75.9 |  | 70 | 214
22 | CCCC(c1ccc(Cl)c(Cl)c1)n1c(C(=O)OC)c(-c2nnc(C)o2)[nH]c1=S (stereo not drawn) [Compound 40] | 43.7 |  |  | 
23 | CCC(c1ccc(F)c(F)c1)n1c(S)nc(-c2ccno2)c1C(=O)OC (stereo not drawn) [Compound 7] | 11.7 |  |  | 
24 | CCC(c1ccc(F)c(F)c1)n1c(C(=O)NCCO)c(-c2nnc(C)o2)[nH]c1=S (stereo not drawn) [Compound 14] |  | 165 to 166 |  | 
25 | CCC(c1ccc(Cl)c(Cl)c1)n1c(S)nc(-c2nnco2)c1C(=O)OC (stereo not drawn) [Compound 9] | 35.5 |  |  | 
